Measurements from paper PMC9120017, “Inhibition mechanism of the chloride channel TMEM16A by the pore blocker 1PBC” (Nature Communications, 2022).
Where two headings read alike, the source gives them in different places.

Target: T1, mouse TMEM16A mutant I640A (Mus musculus, UniProt Q8BHY3, I640A)
T1 construct: expressed in transfected cells; host or cells: HEK293T
T1 sequence (Q8BHY3 1-960 I640A): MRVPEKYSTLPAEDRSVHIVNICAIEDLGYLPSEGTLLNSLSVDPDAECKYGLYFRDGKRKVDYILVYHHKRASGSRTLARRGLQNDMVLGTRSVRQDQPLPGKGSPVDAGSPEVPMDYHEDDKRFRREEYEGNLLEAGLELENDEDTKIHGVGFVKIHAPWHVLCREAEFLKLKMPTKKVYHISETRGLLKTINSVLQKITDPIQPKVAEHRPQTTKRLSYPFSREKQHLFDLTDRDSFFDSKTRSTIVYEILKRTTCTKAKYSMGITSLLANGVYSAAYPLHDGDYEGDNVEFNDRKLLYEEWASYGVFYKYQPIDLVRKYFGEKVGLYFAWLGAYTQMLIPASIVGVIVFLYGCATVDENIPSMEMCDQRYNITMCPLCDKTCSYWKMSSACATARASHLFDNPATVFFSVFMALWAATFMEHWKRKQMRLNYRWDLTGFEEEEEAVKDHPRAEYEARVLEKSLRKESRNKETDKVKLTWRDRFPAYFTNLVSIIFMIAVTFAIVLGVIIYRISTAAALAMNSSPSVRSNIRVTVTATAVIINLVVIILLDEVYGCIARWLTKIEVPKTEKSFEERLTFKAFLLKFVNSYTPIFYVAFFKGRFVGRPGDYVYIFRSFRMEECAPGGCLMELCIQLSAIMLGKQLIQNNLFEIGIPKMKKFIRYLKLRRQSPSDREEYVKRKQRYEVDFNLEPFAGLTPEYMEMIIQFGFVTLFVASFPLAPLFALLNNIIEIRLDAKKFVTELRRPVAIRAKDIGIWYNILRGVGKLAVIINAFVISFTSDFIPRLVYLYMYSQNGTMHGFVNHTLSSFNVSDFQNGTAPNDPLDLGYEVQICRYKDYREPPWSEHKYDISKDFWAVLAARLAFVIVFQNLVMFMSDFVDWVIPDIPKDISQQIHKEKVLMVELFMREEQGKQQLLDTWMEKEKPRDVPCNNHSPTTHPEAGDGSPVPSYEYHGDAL
Test: Inside-out patch recording of 1PBC block, mutant I640A
Type: cell-based
Settings: for remaining activity at 100 µM: 1PBC conc 100; for remaining activity at 100 µM / remaining activity at 3 µM / remaining activity at 10 µM / remaining activity at 30 µM: read-out: relative current in 1PBC (avr); for remaining activity at 3 µM: 1PBC conc 3; for remaining activity at 10 µM: 1PBC conc 10; for remaining activity at 30 µM: 1PBC conc 30
Description: HEK293T cells (ATCC CRL-1573) were maintained in Dulbecco’s modified Eagle’s medium (DMEM; Sigma-Aldrich) supplemented with 10 U ml^−1 penicillin, 0.1 mg ml^−1 streptomycin (Sigma-Aldrich), 2 mM L-glutamine (Sigma-Aldrich), and 10% FBS (Sigma-Aldrich) in a humidified atmosphere containing 5% CO2 at 37 °C. HEK293S GnTI^− cells (ATCC CRL-3022) were maintained in HyClone HyCell TransFx-H medium (GE Healthcare) supplemented with 10 U ml^−1 penicillin, 0.1 mg ml^−1 streptomycin, 4 mM L-glutamine, 0.15% poloxamer 188 (Sigma-Aldrich), and 1% FBS in an atmosphere containing 5% CO2 at 185 rpm at 37 °C. The ac splice variant of mouse TMEM16A (UniProt ID: Q8BHY3), mouse TMEM16B (UniProt ID: Q8CFW1), or mouse TMEM16F (UniProt ID: Q6P9J9) bearing a 3C cleavage site, a Venus YFP, a Myc tag, and a Streptavidin-binding peptide (SBP) downstream of the open reading frame in a modified pcDNA3.1 vector (Invitrogen) were used as described previously[21],[31]. Mutations were introduced using a modified QuikChange method[58] and were verified by sequencing.
HEK293T cells were transfected with 3–4 μg DNA per 6 cm Petri dish using the calcium phosphate co-precipitation method and were used within 24–96 h after transfection. Recordings were performed on inside-out patches excised from HEK293T cells expressing the construct of interest. Patch pipettes were pulled from borosilicate glass capillaries (O.D. 1.5 mm, I.D. 0.86 mm, Sutter Instrument) and were fire-polished with a microforge (Narishige) before use. Pipette resistance was typically 3–8 MΩ when filled with the recording solutions detailed below. Seal resistance was typically 4 GΩ or higher. Voltage-clamp recordings were made using Axopatch 200B, Digidata 1550, and Clampex 10.7 (Molecular Devices). Analog signals were filtered with the in-built 4-pole Bessel filter at 10 kHz and were digitized at 20 kHz. Solution exchange was achieved using a gravity-fed system through a theta glass pipette mounted on an ultra-fast piezo-driven stepper (Siskiyou). […] All recordings were performed at 20 °C.
A symmetrical ionic condition was used throughout. Stock solution with Ca^2+-EGTA contained 150 mM NaCl, 5.99 mM Ca(OH)2, 5 mM EGTA, and 10 mM HEPES at pH 7.40. Stock solution with EGTA contained 150 mM NaCl, 5 mM EGTA, and 10 mM HEPES at pH 7.40. Free Ca^2+ concentrations were adjusted by mixing the stock solutions at the required ratios calculated using the WEBMAXC program (http://web.stanford.edu/~cpatton/webmaxcS.htm). Patch pipettes were filled with the stock solution with Ca^2+-EGTA, which has a free Ca^2+ concentration of 1 mM. 1PBC (ChemBridge) stock was reconstituted in anhydrous DMSO (Sigma-Aldrich) at 100 mM and stored at −20 °C. Working solutions with 1PBC were prepared by serial dilution. Unless otherwise stated, experiments were performed at a saturating Ca^2+ concentration as shown in Supplementary Table 1 and the primary data were corrected for current rundown as described previously[21],[25].
Concentration-response relations, obtained from the ratio of the I-V plots before and after the application of the blocker, were fitted to the Hill equation,1 I/Imax=1/1+IC50/[blocker]^h where I/Imax is the normalized current responses, IC50 defines the concentration at which inhibition is at its half-maximum, and h is the Hill coefficient.

remaining activity at 100 µM (40 mV): 18.8%
IC50 (60 mV, 15 µM Ca2+): 23.1 µM
remaining activity at 3 µM (60 mV): 89%
remaining activity at 10 µM (60 mV): 69.4%
remaining activity at 30 µM (60 mV): 44.3%
remaining activity at 100 µM (60 mV): 17.7%
log-fold IC50 (change of mutant vs WT) (80 mV): 1.079
IC50 (80 mV, 15 µM Ca2+): 22.1 µM
remaining activity at 3 µM (80 mV): 89.4%
remaining activity at 10 µM (80 mV): 67.9%
remaining activity at 30 µM (80 mV): 43%
remaining activity at 100 µM (80 mV): 17.7%
IC50 (100 mV, 15 µM Ca2+): 23.1 µM
remaining activity at 3 µM (100 mV): 91.3%
remaining activity at 10 µM (100 mV): 69.4%
remaining activity at 30 µM (100 mV): 43.1%
remaining activity at 100 µM (100 mV): 18%
IC50 (120 mV, 15 µM Ca2+): 24.9 µM
remaining activity at 3 µM (120 mV): 93.7%
remaining activity at 10 µM (120 mV): 71.5%
remaining activity at 30 µM (120 mV): 45%
remaining activity at 100 µM (120 mV): 17.7%
IC50 (140 mV, 15 µM Ca2+): 28.2 µM
remaining activity at 3 µM (140 mV): 96.5%
remaining activity at 10 µM (140 mV): 75.3%
remaining activity at 30 µM (140 mV): 47.6%
remaining activity at 100 µM (140 mV): 18.5%
IC50 (-20 mV, 15 µM Ca2+): 36.1 µM
remaining activity at 3 µM (-20 mV): 91.2%
remaining activity at 10 µM (-20 mV): 78.5%
remaining activity at 30 µM (-20 mV): 55.5%
remaining activity at 100 µM (-20 mV): 25.8%
IC50 (-40 mV, 15 µM Ca2+): 41.5 µM
remaining activity at 3 µM (-40 mV): 91.5%
remaining activity at 10 µM (-40 mV): 80.9%
remaining activity at 30 µM (-40 mV): 58.8%
remaining activity at 100 µM (-40 mV): 28.8%
IC50 (-60 mV, 15 µM Ca2+): 46.6 µM
remaining activity at 3 µM (-60 mV): 91.7%
remaining activity at 10 µM (-60 mV): 83.4%
remaining activity at 30 µM (-60 mV): 61.1%
remaining activity at 100 µM (-60 mV): 31.4%
IC50 (-80 mV, 15 µM Ca2+): 53 µM
remaining activity at 3 µM (-80 mV): 92.4%
remaining activity at 10 µM (-80 mV): 84.6%
remaining activity at 30 µM (-80 mV): 64.1%
remaining activity at 100 µM (-80 mV): 34.6%
IC50 (-100 mV, 15 µM Ca2+): 60.2 µM
remaining activity at 3 µM (-100 mV): 93.4%
remaining activity at 10 µM (-100 mV): 86.7%
remaining activity at 30 µM (-100 mV): 66.4%
remaining activity at 100 µM (-100 mV): 37.8%
IC50 (-120 mV, 15 µM Ca2+): 66 µM
remaining activity at 3 µM (-120 mV): 93.4%
remaining activity at 10 µM (-120 mV): 87.4%
remaining activity at 30 µM (-120 mV): 68.3%
remaining activity at 100 µM (-120 mV): 40.2%
IC50 (-140 mV, 15 µM Ca2+): 73.5 µM
remaining activity at 3 µM (-140 mV): 93.7%
remaining activity at 10 µM (-140 mV): 88.3%
remaining activity at 30 µM (-140 mV): 69.4%
remaining activity at 100 µM (-140 mV): 44%
IC50 (I640A, V 0 mV): 31.5 µM
IC50 (I640A, V 20 mV): 27.5 µM
IC50 (I640A, V 40 mV): 24.7 µM
IC50 (I640A, V 60 mV): 23.1 µM
IC50 (I640A, V 80 mV): 22.1 µM
IC50 (I640A, V 100 mV): 23.1 µM
IC50 (I640A, V 120 mV): 24.9 µM
IC50 (I640A, V 140 mV): 28.2 µM
IC50 (I640A, V -20 mV): 36.1 µM
IC50 (I640A, V -40 mV): 41.5 µM
IC50 (I640A, V -60 mV): 46.6 µM
IC50 (I640A, V -80 mV): 53 µM
IC50 (I640A, V -100 mV): 60.2 µM
IC50 (I640A, V -120 mV): 66 µM
IC50 (I640A, V -140 mV): 73.5 µM
Compound: N#Cc1c(C(F)(F)F)cc(O)n2c1nc1ccccc12 [1PBC]
